In ChEMBL document CHEMBL3885861, “Open TG-GATES”:

Organism: Rattus norvegicus
Assay: Open TG-GATES - Regimen: Daily Repeat
Assay type: toxicity, organism-based, Sprague-Dawley
Design: regimen Daily Repeat, gender Male, age 6 weeks
Settings: in vivo, po, 250 mg/kg, route gavage, dose level High; for KIDNEY_L / KIDNEY_R / KIDNEY_TOTAL: tissue Kidney; for ALP / ALT / AST / BUN / CRE / Ca / Cl / DBIL / GLC / IP / K / LDH / Na / PL / RALB / TBIL / TC / TG / TP / gamma-GTP: tissue Plasma

Compound `O=C1CN(/N=C/c2ccc(-c3ccc([N+](=O)[O-])cc3)o2)C(O)=N1` [DANTROLENE] has an APTT (72 h, tissue Blood, time 3 day) of 18.5 s, a Bas (72 h, tissue Blood, time 3 day) of 0% and an Eos (72 h, tissue Blood, time 3 day) of 1%. For the same compound, the Fbg (72 h, tissue Blood, time 3 day) was 226.8 mg/dL, the Hb (72 h, tissue Blood, time 3 day) was 14.7 g/dL and the Lym (72 h, tissue Blood, time 3 day) was 85%. For the same compound, the MCH (72 h, tissue Blood, time 3 day) was 21.1 pg, the MCHC (72 h, tissue Blood, time 3 day) was 33.3% and the MCV (72 h, tissue Blood, time 3 day) was 63.2 fL. It also gave a Mono (72 h, tissue Blood, time 3 day) of 6.6%, a Plat (72 h, tissue Blood, time 3 day) of 124.6 x10_4/uL and an RBC (72 h, tissue Blood, time 3 day) of 696 x10_4/ul. For the same compound, the Ret (72 h, tissue Blood, time 3 day) was 2.8%, the WBC (72 h, tissue Blood, time 3 day) was 69 x10_2/uL and the KIDNEY_L (72 h, time 3 day) was 1 g. For the same compound, the KIDNEY_R (72 h, time 3 day) was 1 g, the KIDNEY_TOTAL (72 h, time 3 day) was 2 g and the ALP (72 h, time 3 day) was 630.6 IU/L. The ALT (72 h, time 3 day) was 29.6 IU/L, the AST (72 h, time 3 day) was 52.4 IU/L and the BUN (72 h, time 3 day) was 17.2 mg/dL. The CRE (72 h, time 3 day) was 0.5 mg/dL, the Ca (72 h, time 3 day) was 10.4 mg/dL and the Cl (72 h, time 3 day) was 103.8 meq/L. It also gave a DBIL (72 h, time 3 day) of 0.018 mg/dL, a GLC (72 h, time 3 day) of 174 mg/dL and an IP (72 h, time 3 day) of 8.2 mg/dL. For the same compound, the K (72 h, time 3 day) was 4.4 meq/L, the LDH (72 h, time 3 day) was 99.6 IU/L and the Na (72 h, time 3 day) was 139.2 meq/L. It also gave a PL (72 h, time 3 day) of 121.2 mg/dL, an RALB (72 h, time 3 day) of 3.7 g/dL and a TBIL (72 h, time 3 day) of 0.4 mg/dL. The TC (72 h, time 3 day) was 62.8 mg/dL, the TG (72 h, time 3 day) was 24 mg/dL and the TP (72 h, time 3 day) was 5.5 g/dL. For the same compound, the gamma-GTP (72 h, time 3 day) was 1 IU/L, the TERMINAL_BW ([…], time 7 day) was 231.2 g and the TERMINAL_BW ([…], time 14 day) was 269 g. It also gave a TERMINAL_BW ([…], time 28 day) of 326.2 g, an APTT ([…], tissue Blood, time 7 day) of 18.1 s and a Bas ([…], tissue Blood, time 7 day) of 0%. It also gave an Eos ([…], tissue Blood, time 7 day) of 0.8%, a Fbg ([…], tissue Blood, time 7 day) of 233 mg/dL and a Hb ([…], tissue Blood, time 7 day) of 14.4 g/dL. The Lym ([…], tissue Blood, time 7 day) was 81.4%, the MCH ([…], tissue Blood, time 7 day) was 21.2 pg and the MCHC ([…], tissue Blood, time 7 day) was 33.5%. It also gave an MCV ([…], tissue Blood, time 7 day) of 63.3 fL, a Mono ([…], tissue Blood, time 7 day) of 6% and a Plat ([…], tissue Blood, time 7 day) of 108.9 x10_4/uL. It also gave an RBC ([…], tissue Blood, time 7 day) of 680.2 x10_4/ul, a Ret ([…], tissue Blood, time 7 day) of 5.8% and a WBC ([…], tissue Blood, time 7 day) of 128.7 x10_2/uL. It also gave an APTT ([…], tissue Blood, time 14 day) of 19.3 s, a Bas ([…], tissue Blood, time 14 day) of 0% and an Eos ([…], tissue Blood, time 14 day) of 0.6%. It also gave a Fbg ([…], tissue Blood, time 14 day) of 233.6 mg/dL, a Hb ([…], tissue Blood, time 14 day) of 15 g/dL and a Lym ([…], tissue Blood, time 14 day) of 82.2%. For the same compound, the MCH ([…], tissue Blood, time 14 day) was 20.1 pg, the MCHC ([…], tissue Blood, time 14 day) was 33.6% and the MCV ([…], tissue Blood, time 14 day) was 59.7 fL. For the same compound, the Mono ([…], tissue Blood, time 14 day) was 6.4%, the Plat ([…], tissue Blood, time 14 day) was 119.9 x10_4/uL and the RBC ([…], tissue Blood, time 14 day) was 750.6 x10_4/ul. It also gave a Ret ([…], tissue Blood, time 14 day) of 5.6%, a WBC ([…], tissue Blood, time 14 day) of 115.6 x10_2/uL and an APTT ([…], tissue Blood, time 28 day) of 18.4 s. For the same compound, the Bas ([…], tissue Blood, time 28 day) was 0%, the Eos ([…], tissue Blood, time 28 day) was 1% and the Fbg ([…], tissue Blood, time 28 day) was 288.6 mg/dL. The Hb ([…], tissue Blood, time 28 day) was 15.3 g/dL, the Ht ([…], tissue Blood, time 28 day) was 45% and the Lym ([…], tissue Blood, time 28 day) was 80.4%. It also gave an MCH ([…], tissue Blood, time 28 day) of 19.3 pg, an MCHC ([…], tissue Blood, time 28 day) of 33.9% and an MCV ([…], tissue Blood, time 28 day) of 56.9 fL. The Mono ([…], tissue Blood, time 28 day) was 6.4%, the Plat ([…], tissue Blood, time 28 day) was 134.2 x10_4/uL and the RBC ([…], tissue Blood, time 28 day) was 791.2 x10_4/ul. It also gave a Ret ([…], tissue Blood, time 28 day) of 5.2%, a WBC ([…], tissue Blood, time 28 day) of 109.3 x10_2/uL and a KIDNEY_L ([…], time 7 day) of 1.1 g. The KIDNEY_R ([…], time 7 day) was 1.1 g, the KIDNEY_TOTAL ([…], time 7 day) was 2.2 g and the KIDNEY_L ([…], time 14 day) was 1.2 g. It also gave a KIDNEY_R ([…], time 14 day) of 1.2 g, a KIDNEY_TOTAL ([…], time 14 day) of 2.4 g and a KIDNEY_L ([…], time 28 day) of 1.7 g. For the same compound, the KIDNEY_R ([…], time 28 day) was 1.7 g, the KIDNEY_TOTAL ([…], time 28 day) was 3.3 g and the ALP ([…], time 7 day) was 838.2 IU/L. The ALT ([…], time 7 day) was 31.4 IU/L, the AST ([…], time 7 day) was 51.6 IU/L and the BUN ([…], time 7 day) was 16 mg/dL. For the same compound, the CRE ([…], time 7 day) was 0.6 mg/dL, the Ca ([…], time 7 day) was 10.8 mg/dL and the Cl ([…], time 7 day) was 107.2 meq/L. It also gave a DBIL ([…], time 7 day) of 0.01 mg/dL, a GLC ([…], time 7 day) of 183.8 mg/dL and an IP ([…], time 7 day) of 7.4 mg/dL. It also gave a K ([…], time 7 day) of 4.7 meq/L, an LDH ([…], time 7 day) of 102.6 IU/L and a Na ([…], time 7 day) of 140.2 meq/L. It also gave a PL ([…], time 7 day) of 160.2 mg/dL, an RALB ([…], time 7 day) of 3.6 g/dL and a TBIL ([…], time 7 day) of 0.4 mg/dL. It also gave a TC ([…], time 7 day) of 75.2 mg/dL, a TG ([…], time 7 day) of 98.4 mg/dL and a TP ([…], time 7 day) of 5.6 g/dL. For the same compound, the gamma-GTP ([…], time 7 day) was 1.4 IU/L, the ALP ([…], time 14 day) was 701.4 IU/L and the ALT ([…], time 14 day) was 26.4 IU/L. For the same compound, the AST ([…], time 14 day) was 55.8 IU/L, the BUN ([…], time 14 day) was 17.6 mg/dL and the CRE ([…], time 14 day) was 0.5 mg/dL. For the same compound, the Ca ([…], time 14 day) was 10.8 mg/dL, the Cl ([…], time 14 day) was 104.4 meq/L and the DBIL ([…], time 14 day) was 0.042 mg/dL. It also gave a GLC ([…], time 14 day) of 172 mg/dL, an IP ([…], time 14 day) of 7.9 mg/dL and a K ([…], time 14 day) of 4.2 meq/L. The LDH ([…], time 14 day) was 92 IU/L, the Na ([…], time 14 day) was 141.4 meq/L and the PL ([…], time 14 day) was 152.6 mg/dL. The RALB ([…], time 14 day) was 3.9 g/dL, the TBIL ([…], time 14 day) was 0.4 mg/dL and the TC ([…], time 14 day) was 64.4 mg/dL. For the same compound, the TG ([…], time 14 day) was 88 mg/dL, the TP ([…], time 14 day) was 5.8 g/dL and the gamma-GTP ([…], time 14 day) was 1.2 IU/L. It also gave an ALP ([…], time 28 day) of 453.2 IU/L, an ALT ([…], time 28 day) of 24.6 IU/L and an AST ([…], time 28 day) of 35.8 IU/L. It also gave a BUN ([…], time 28 day) of 24.8 mg/dL, a CRE ([…], time 28 day) of 0.7 mg/dL and a Ca ([…], time 28 day) of 10.9 mg/dL. It also gave a Cl ([…], time 28 day) of 106.6 meq/L, a DBIL ([…], time 28 day) of 0.04 mg/dL and a GLC ([…], time 28 day) of 175.6 mg/dL. It also gave an IP ([…], time 28 day) of 7.3 mg/dL, a K ([…], time 28 day) of 4.3 meq/L and an LDH ([…], time 28 day) of 96.2 IU/L. For the same compound, the Na ([…], time 28 day) was 141.2 meq/L, the PL ([…], time 28 day) was 174.6 mg/dL and the RALB ([…], time 28 day) was 3.9 g/dL. It also gave a TBIL ([…], time 28 day) of 0.3 mg/dL, a TC ([…], time 28 day) of 70.6 mg/dL and a TG ([…], time 28 day) of 152.2 mg/dL. For the same compound, the TP ([…], time 28 day) was 6.1 g/dL and the gamma-GTP ([…], time 28 day) was 2.4 IU/L.
